Structures can show the parent of a compound that is named as a salt.
What follows are molecules tested against ROCK2 (Homo sapiens (Human), UniProt O75116) (assay: biochemical).
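Further: rho kinase enzyme reaction halted with EDTA, phospho- and non-phospho peptide separated for read-out, kinase activity inhibition derived across a dose-response series, DMSO under 2%.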

Sequence of ROCK2 (O75116 whole entry, species assumed): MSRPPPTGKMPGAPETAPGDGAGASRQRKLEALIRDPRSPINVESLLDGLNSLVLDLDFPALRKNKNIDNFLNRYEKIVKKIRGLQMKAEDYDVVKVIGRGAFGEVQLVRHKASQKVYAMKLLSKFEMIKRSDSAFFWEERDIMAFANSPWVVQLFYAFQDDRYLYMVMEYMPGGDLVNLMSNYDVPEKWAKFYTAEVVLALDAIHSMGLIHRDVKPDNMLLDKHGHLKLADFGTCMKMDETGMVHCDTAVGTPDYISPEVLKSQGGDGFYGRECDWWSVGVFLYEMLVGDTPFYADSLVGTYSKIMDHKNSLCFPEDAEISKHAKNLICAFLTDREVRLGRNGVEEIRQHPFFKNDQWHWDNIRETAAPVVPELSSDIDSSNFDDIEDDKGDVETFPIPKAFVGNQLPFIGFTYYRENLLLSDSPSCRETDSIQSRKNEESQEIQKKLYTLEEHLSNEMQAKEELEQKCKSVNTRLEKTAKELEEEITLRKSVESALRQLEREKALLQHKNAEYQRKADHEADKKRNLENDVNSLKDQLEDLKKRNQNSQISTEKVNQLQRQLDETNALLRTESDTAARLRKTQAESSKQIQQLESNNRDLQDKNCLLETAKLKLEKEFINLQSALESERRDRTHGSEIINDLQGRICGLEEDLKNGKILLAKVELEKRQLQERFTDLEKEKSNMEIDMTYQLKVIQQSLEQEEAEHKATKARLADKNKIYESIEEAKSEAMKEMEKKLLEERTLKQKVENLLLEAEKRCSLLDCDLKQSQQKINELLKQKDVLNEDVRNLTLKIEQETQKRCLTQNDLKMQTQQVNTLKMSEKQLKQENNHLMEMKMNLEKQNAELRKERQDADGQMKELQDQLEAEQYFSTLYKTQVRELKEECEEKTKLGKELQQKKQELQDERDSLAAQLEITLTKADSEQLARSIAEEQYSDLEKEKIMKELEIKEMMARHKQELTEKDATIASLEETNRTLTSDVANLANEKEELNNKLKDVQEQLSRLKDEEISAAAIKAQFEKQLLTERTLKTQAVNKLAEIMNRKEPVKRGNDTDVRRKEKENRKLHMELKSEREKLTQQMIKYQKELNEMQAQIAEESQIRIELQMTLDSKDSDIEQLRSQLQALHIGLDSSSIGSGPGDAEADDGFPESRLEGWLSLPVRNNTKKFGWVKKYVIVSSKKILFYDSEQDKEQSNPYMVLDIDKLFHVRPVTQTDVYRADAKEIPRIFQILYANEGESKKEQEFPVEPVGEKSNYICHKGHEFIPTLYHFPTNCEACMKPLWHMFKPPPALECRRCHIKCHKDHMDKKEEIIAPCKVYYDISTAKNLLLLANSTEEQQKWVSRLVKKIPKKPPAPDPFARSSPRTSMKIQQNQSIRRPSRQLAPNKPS

SMILES	IC50
COc1cccc(NC2CCN(c3ccc(-c4ccncc4F)c(C)n3)C2=O)c1 (single isomer, unassigned) [Example 121, 1-(3′-fluoro-2-methyl-[3,4′-bipyridin]-6-yl)-3-((3-methoxyphenyl)amino)pyrrolidin-2-one]	100 to 2200 nM
COc1nc(N2CCC(Nc3ccc4ncsc4c3)C2=O)ccc1-c1cn[nH]c1 (racemic) [Example 259, 3-(benzo[d]thiazol-6-ylamino)-1-(6-methoxy-5-(1H-pyrazol-4-yl)pyridin-2-yl)pyrrolidin-2-one]	< 10 nM
COc1ccc(C(N)=O)c(NC2CCN(c3ccc(-c4cn[nH]c4)cc3)C2=O)c1 (racemic) [Example 324, 2-((1-(4-(1H-pyrazol-4-yl)phenyl)-2-oxopyrrolidin-3-yl)amino)-4-methoxybenzamide]	100 to 2200 nM
COc1cc(NC2CCN(c3ccc(-c4cn[nH]c4)cc3F)C2=O)ccc1F (single isomer, unassigned) [Example 330, 3-((4-fluoro-3-methoxyphenyl)amino)-1-(2-fluoro-4-(1H-pyrazol-4-yl)phenyl) pyrrolidin-2-one]	10 to 100 nM
COc1nc(N2CCC(N3CCc4cccnc43)C2=O)ccc1-c1cn[nH]c1 (racemic) [Example 281, 3-(2,3-dihydro-1H-pyrrolo[2,3-b]pyridin-1-yl)-1-(6-methoxy-5-(1H-pyrazol-4-yl)pyridin-2-yl)pyrrolidin-2-one]	10 to 100 nM
CNc1nc(N2CCC(Nc3cc(F)cc(OC)c3)C2=O)ccc1-c1cn[nH]c1 (single isomer, unassigned) [Example 252, 3-((3-fluoro-5-methoxyphenyl)amino)-1-(6-(methylamino)-5-(1H-pyrazol-4-yl)pyridin-2-yl)pyrrolidin-2-one]	< 10 nM
O=C1[C@H](Nc2ccc3c(c2)OCO3)CCN1c1ccc(-c2cn[nH]c2)cc1 [Example 396, (R)-1-(4-(1H-pyrazol-4-yl)phenyl)-3-(benzo[d][1,3]dioxo1-5-ylamino)pyrrolidin-2-one]	10 to 100 nM

Other lines, results leading:

IC50	SMILES
10 to 100 nM	COc1cc(N2CCC(Nc3cccc(OC(C)C)c3)C2=O)ccc1-c1cn[nH]c1 (centres unmarked) [Example 71, 3-((3-isopropoxyphenyl)amino)-1-(3-methoxy-4-(1H-pyrazol-4-yl)phenyl)pyrrolidin-2-one, TFA]
10 to 100 nM	O=C1C(Nc2cccc(OCC(F)F)c2)CCN1c1ccc(-c2cn[nH]c2)cc1 (single isomer, unassigned) [Example 238, 1-(4-(1H-pyrazol-4-yl)phenyl)-3-((3-(2,2-difluoroethoxy)phenyl)amino)pyrrolidin-2-one]
10 to 100 nM	COc1cccc(NC2CCN(c3ccc(-c4cn[nH]c4)c(F)c3F)C2=O)c1 (single isomer, unassigned) [Example 305, 1-(2,3-difluoro-4-(1H-pyrazol-4-yl)phenyl)-3-((3-methoxyphenyl)amino) pyrrolidin-2-one]
< 10 nM	COc1cc(N2CCC(Nc3cccc(OC(F)F)c3)C2=O)ccc1-c1cn[nH]c1 (centres unmarked) [Example 66, 3-((3-(Difluoromethoxy)phenyl)amino)-1-(3-methoxy-4-(1H-pyrazol-4-yl)phenyl)pyrrolidin-2-one]
100 to 2200 nM	COc1cc(F)cc(NC2CCN(c3ccc(-c4cn[nH]c4)c(C(F)(F)F)c3)C2=O)c1 (single isomer, unassigned) [Example 369, 1-(4-(1H-pyrazol-4-yl)-3-(trifluoromethyl)phenyl)-3-((3-fluoro-5-methoxyphenyl)amino)pyrrolidin-2-one]
10 to 100 nM	COc1cc(NC2CCN(c3ccc(-c4cn[nH]c4)c(C)n3)C2=O)ccc1F (single isomer, unassigned) [Example 194, 3-((4-fluoro-3-methoxyphenyl)amino)-1-(6-methyl-5-(1H-pyrazol-4-yl)pyridin-2-yl)pyrrolidin-2-one]
100 to 2200 nM	COc1c(F)cccc1NC1CCN(c2ccc(-c3cn[nH]c3)c(OC(F)F)c2)C1=O (single isomer, unassigned) [Example 32, 1-(3-(difluoromethoxy)-4-(1H-pyrazol-4-yl)phenyl)-3-((3-fluoro-2-methoxyphenyl)amino)pyrrolidin-2-one]

— patent US10112929B2, “Lactams as inhibitors of rock” (BRISTOL-MYERS SQUIBB COMPANY, priority 2015, dated 2018)
